Test results reported in patent US20230391772A1, “METHODS AND COMPOSITIONS FOR TARGETED PROTEIN DEGRADATION” (Ranok Therapeutics (Hangzhou) Co. Ltd., priority 2020, published 2023).
pEC50, pIC50: −log10 of the molar value.

Columns and labels:
[1] = tested on: NCI-H358 human non-small cell lung cancer; experiment: NCI-H358 CCK-8 proliferation assay; format: cell-based; settings: NCI-H358 cells, 72 hr
In short: (§1)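 Compounds were tested as a 3-fold series from 20 μM down to 1.02 nM in CCK-8 absorbance assays. The lines used were NCI-H23 and NCI-H358, each with 1 KRAS(G12C) copy, and MIA PaCa-2 with 2 copies. Inhibition was derived relative to DMSO controls, with a no-cell blank subtracted.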

[2] = tested on: NCI-H23 human non-small cell lung cancer; experiment: NCI-H23 CCK-8 proliferation assay; format: cell-based; settings: NCI-H23 cells, 72 hr
Procedure: The following cancer cell lines were employed: BT-474 human breast carcinoma (ATCC, #HTB-20); MIA PaCa-2 human pancreatic carcinoma [2 copies KRAS(G12C)](ATCC, #CRL-1420); NCI-H23 human non-small cell lung cancer [1 copy KRAS(G12C)](ATCC, #CRL-5800); NCI-H358 human non-small cell lung cancer [1 copy KRAS(G12C)](ATCC, #CRL-5807); LU65A human lung carcinoma (Pharmaron, Beijing, China). Cell lines were cultured essentially according to ATCC and Pharmaron recommendations.
Cancer Cell Line Proliferation (CCK-8) Assays
3-fold serial dilutions of each test compound were prepared ranging from 20 μM to 1.02 nM.
% Inhibition=100−(D−B)/(S−B)*100%. • S: Absorbance of cells treated with DMSO • D: Absorbance of compound-treated cells • B: Absorbance of medium with DMSO without cells

HSP90a protein = molecular target: T1, HSP90a protein (Homo sapiens, UniProt P07900); experiment: HSP90α-binding fluorescent polarization (FP) assay, BODIPY-labeled RNK04010 probe; settings: FP competition with RNK04010 (BODIPY-labeled), 5 nM, 300 min at 25° C.
T1 construct: purchased BPS Bioscience 50298
In short: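 Test compounds (2.5-fold serial dilution, 20 μM to 5.2 nM) competed with a fluorescent tracer for N-terminal HSP90a, with fluorescence polarization as the read-out. FITC-geldanamycin tracer was used at 5 nM final with 120 min incubation at 25° C; BODIPY-labeled RNK04010 was used at 5 nM final with 300 min incubation.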

[3] = tested on: MIA PaCa-2 human pancreatic carcinoma; experiment: MIA PaCa-2 CCK-8 proliferation assay; format: cell-based; settings: Homo sapiens, MIA PaCa-2, 72 h, MIA PaCa-2 cells
In short: as §1

## CCNC(=O)c1nnc(-c2cc(CC)c(O)cc2O)n1-c1ccc(CN2CCN(CC3CCN(C(=O)CCNc4nc5c(c(N6CCN(C(=O)CC)CC6)n4)CCN(c4cc(O)cc6ccccc46)C5)CC3)CC2)cc1 [Compound 121, N-ethyl-5-(5-ethyl-2,4-dihydroxyphenyl)-4-(4-((4-((1-(3-((7-(3-hydroxynaphthalen-1-yl)-4-(4-propionylpiperazin-1-yl)-5,6,7,8-tetrahydropyrido[3,4-d]pyrimidin-2-yl)amino)propanoyl)piperidin-4-yl)methyl)piperazin-1-yl)methyl)phenyl)-4H-1,2,4-triazole-3-carboxamide, trifluoroacetic acid]
[1]
  pEC50: > 7.00
[2]
  pEC50: 6.00 to 7.00
HSP90a protein
  pIC50: > 7.00
[3]
  pEC50: 6.00 to 7.00

## C=CC(=O)N1CCN(c2nc(NCCC(=O)N3CCC(CN4CCN(Cc5ccc(-n6c(C(=O)NCC(F)(F)F)nnc6-c6cc(C)c(O)cc6O)cc5)CC4)CC3)nc3c2CCN(c2cc(O)cc4ccccc24)C3)CC1 [Compound 10, 4-(4-((4-((1-(3-((4-(4-acryloylpiperazin-1-yl)-7-(3-hydroxynaphthalen-1-yl)-5,6,7,8-tetrahydropyrido[3,4-d]pyrimidin-2-yl)amino)propanoyl)piperidin-4-yl)methyl)piperazin-1-yl)methyl)phenyl)-5-(2,4-dihydroxy-5-methylphenyl)-N-(2,2,2-trifluoroethyl)-4H-1,2,4-triazole-3-carboxamide, trifluoroacetic acid]
[1]
  pEC50: 6.00 to 7.00
[2]
  pEC50: 6.00 to 7.00
HSP90a protein
  pIC50: 6.00 to 7.00

## C=C(F)C(=O)N1CCN(c2nc(N3CCC(N4CCN(Cc5ccc(-n6c(O)nnc6-c6cc(C(C)C)c(O)cc6O)cc5)CC4)CC3)nc3c2CCN(c2cccc4cccc(Cl)c24)C3)C[C@@H]1CC#N [Compound 132, (S)-2-(4-(7-(8-chloronaphthalen-1-yl)-2-(4-(4-(4-(3-(2,4-dihydroxy-5-isopropylphenyl)-5-hydroxy-4H-1,2,4-triazol-4-yl)benzyl)piperazin-1-yl)piperidin-1-yl)-5,6,7,8-tetrahydropyrido[3,4-d]pyrimidin-4-yl)-1-(2-fluoroacryloyl)piperazin-2-yl)acetonitrile]
[1]
  pEC50: 6.00 to 7.00
[2]
  pEC50: 6.00 to 7.00
HSP90a protein
  pIC50: 6.00 to 7.00

## C=CC(=O)N1CCN(c2nc(NCCC(=O)N3CCN(Cc4ccc(CN(C)Cc5ccc(-n6c(C(=O)NCC(F)(F)F)nnc6-c6cc(C(C)C)c(O)cc6O)cc5)cc4)CC3)nc3c2CCN(c2cccc4ccccc24)C3)C[C@H]1CC#N [Compound 109, (R)-4-(4-(((4-((4-(3-((4-(4-acryloyl-3-(cyanomethyl)piperazin-1-yl)-7-(naphthalen-1-yl)-5,6,7,8-tetrahydropyrido[3,4-d]pyrimidin-2-yl)amino)propanoyl)piperazin-1-yl)methyl)benzyl)(methyl)amino)methyl)phenyl)-5-(2,4-dihydroxy-5-isopropylphenyl)-N-(2,2,2-trifluoroethyl)-4H-1,2,4-triazole-3-carboxamide, trifluoroacetic acid]
[1]
  pEC50: 6.00 to 7.00
[2]
  pEC50: 6.00 to 7.00
HSP90a protein
  pIC50: 6.00 to 7.00

## CCC(=O)N1CCN(c2nc(NCCC(=O)N3CCC(CN4CCN(Cc5ccc(-n6c(C(=O)NC(C)C(F)(F)F)nnc6-c6cc(CC)c(O)cc6O)cc5)CC4)CC3)nc3c2CCN(c2cc(O)cc4ccccc24)C3)CC1 (stereo not shown) [Compound 119, 5-(5-ethyl-2,4-dihydroxyphenyl)-4-(4-((4-((1-(3-((7-(3-hydroxynaphthalen-1-yl)-4-(4-propionylpiperazin-1-yl)-5,6,7,8-tetrahydropyrido[3,4-d]pyrimidin-2-yl)amino)propanoyl)piperidin-4-yl)methyl)piperazin-1-yl)methyl)phenyl)-N-(1,1,1-trifluoropropan-2-yl)-4H-1,2,4-triazole-3-carboxamide, trifluoroacetic acid]
[1]
  pEC50: 6.00 to 7.00
[2]
  pEC50: 6.00 to 7.00
HSP90a protein
  pIC50: 6.00 to 7.00

## C=CC(=O)N1CCN(c2nc(NCCC(=O)N3CCC(Cc4ccc(CN(C)Cc5ccc(-n6c(O)nnc6-c6cc(C(C)C)c(O)cc6O)cc5)cc4)CC3)nc3c2CCN(c2cc(O)cc4ccccc24)C3)CC1 [Compound 19, 1-(4-(2-((3-(4-(4-(((4-(3-(2,4-dihydroxy-5-isopropylphenyl)-5-hydroxy-4H-1,2,4-triazol-4-yl)benzyl)(methyl)amino)methyl)benzyl)piperidin-1-yl)-3-oxopropyl)amino)-7-(3-hydroxynaphthalen-1-yl)-5,6,7,8-tetrahydropyrido[3,4-d]pyrimidin-4-yl)piperazin-1-yl)prop-2-en-1-one, trifluoroacetic acid]
[1]
  pEC50: 6.00 to 7.00
[2]
  pEC50: 6.00 to 7.00
HSP90a protein
  pIC50: 6.00 to 7.00

## CCc1cc(-c2nnc(O)n2-c2ccc(CN3CCN(CC4CCN(c5nc6c(c(N7CCN(C(=O)C(F)(F)F)[C@@H](CC#N)C7)n5)CCN(c5cccc7cccc(Cl)c57)C6)CC4)CC3)cc2)c(O)cc1O [Compound 131, (S)-2-(4-(7-(8-chloronaphthalen-1-yl)-2-(4-((4-(4-(3-(5-ethyl-2,4-dihydroxyphenyl)-5-hydroxy-4H-1,2,4-triazol-4-yl)benzyl)piperazin-1-yl)methyl)piperidin-1-yl)-5,6,7,8-tetrahydropyrido[3,4-d]pyrimidin-4-yl)-1-(2,2,2-trifluoroacetyl)piperazin-2-yl)acetonitrile]
[1]
  pEC50: < 6.00
[2]
  pEC50: 6.00 to 7.00
HSP90a protein
  pIC50: < 6.00

## CCC(=O)N1CCN(c2nc(NCCC(=O)N3CCC(CN4CCN(Cc5ccc(-n6c(C(N)=O)nnc6-c6cc(CC)c(O)cc6O)cc5)CC4)CC3)nc3c2CCN(c2cc(O)cc4ccccc24)C3)CC1 [Compound 75, 5-(5-ethyl-2,4-dihydroxyphenyl)-4-(4-((4-((1-(3-((7-(3-hydroxynaphthalen-1-yl)-4-(4-propionylpiperazin-1-yl)-5,6,7,8-tetrahydropyrido[3,4-d]pyrimidin-2-yl)amino)propanoyl)piperidin-4-yl)methyl)piperazin-1-yl)methyl)phenyl)-4H-1,2,4-triazole-3-carboxamide, trifluoroacetic acid]
[1]
  pEC50: 6.00 to 7.00
[2]
  pEC50: < 6.00
HSP90a protein
  pIC50: > 7.00

## CC(=O)N1CCN(c2nc(NCCC(=O)N[C@H](C)c3ccc(CN4CCC(Cc5ccc(-n6c(O)nnc6-c6cc(C(C)C)c(O)cc6O)cc5)CC4)cc3)nc3c2CCN(c2cc(O)cc4ccccc24)C3)CC1 [Compound 60, (R)-3-((4-(4-acetylpiperazin-1-yl)-7-(3-hydroxynaphthalen-1-yl)-5,6,7,8-tetrahydropyrido[3,4-d]pyrimidin-2-yl)amino)-N-(1-(4-((4-(4-(3-(2,4-dihydroxy-5-isopropylphenyl)-5-hydroxy-4H-1,2,4-triazol-4-yl)benzyl)piperidin-1-yl)methyl)phenyl)ethyl)propanamide, trifluoroacetic acid]
[1]
  pEC50: 6.00 to 7.00
[2]
  pEC50: < 6.00
HSP90a protein
  pIC50: > 7.00

## CC(=O)N1CCN(c2nc(NCCC(=O)N3CCN(Cc4ccc(CN(C)Cc5ccc(-n6c(C(=O)NCC(F)(F)F)nnc6-c6cc(C(C)C)c(O)cc6O)cc5)cc4)CC3)nc3c2CCN(c2cc(O)cc4ccccc24)C3)CC1 [Compound 115, 4-(4-(((4-((4-(3-((4-(4-acetylpiperazin-1-yl)-7-(3-hydroxynaphthalen-1-yl)-5,6,7,8-tetrahydropyrido[3,4-d]pyrimidin-2-yl)amino)propanoyl)piperazin-1-yl)methyl)benzyl)(methyl)amino)methyl)phenyl)-5-(2,4-dihydroxy-5-isopropylphenyl)-N-(2,2,2-trifluoroethyl)-4H-1,2,4-triazole-3-carboxamide, trifluoroacetic acid]
[1]
  pEC50: 6.00 to 7.00
[2]
  pEC50: 6.00 to 7.00
HSP90a protein
  pIC50: 6.00 to 7.00

## CCC(=O)N1CCN(c2nc(N3CCC(CN4CCN(Cc5ccc(-n6c(O)nnc6-c6cc(C(C)C)c(O)cc6O)cc5)CC4)CC3)nc3c2CCN(c2cccc4cccc(Cl)c24)C3)C[C@@H]1CC#N [Compound 128, (S)-2-(4-(7-(8-chloronaphthalen-1-yl)-2-(4-((4-(4-(3-(2,4-dihydroxy-5-isopropylphenyl)-5-hydroxy-4H-1,2,4-triazol-4-yl)benzyl)piperazin-1-yl)methyl)piperidin-1-yl)-5,6,7,8-tetrahydropyrido[3,4-d]pyrimidin-4-yl)-1-propionylpiperazin-2-yl)acetonitrile]
[1]
  pEC50: 6.00 to 7.00
[2]
  pEC50: 6.00 to 7.00
HSP90a protein
  pIC50: 6.00 to 7.00

## C=CC(=O)N1CCN(c2nc(NCCC(=O)N3CCC(CN4CCN(Cc5ccc(-n6c(C(N)=O)nnc6-c6cc(CC)c(O)cc6O)cc5)CC4)CC3)nc3c2CCN(c2cccc4ccccc24)C3)C[C@H]1CC#N [Compound 98, (R)-4-(4-((4-((1-(3-((4-(4-acryloyl-3-(cyanomethyl)piperazin-1-yl)-7-(naphthalen-1-yl)-5,6,7,8-tetrahydropyrido[3,4-d]pyrimidin-2-yl)amino)propanoyl)piperidin-4-yl)methyl)piperazin-1-yl)methyl)phenyl)-5-(5-ethyl-2,4-dihydroxyphenyl)-4H-1,2,4-triazole-3-carboxamide, trifluoroacetic acid]
[1]
  pEC50: 6.00 to 7.00
[2]
  pEC50: 6.00 to 7.00
HSP90a protein
  pIC50: > 7.00
